# Data as given in BindingDB's records for patent US20240246981 (Boehringer Ingelheim International, 2024).
# Legend:
# [1] = target: Glutaminyl-peptide cyclotransferase (Homo sapiens, UniProt Q16769); test: Biochemical QPCT and QPCTL Activity Assay
# Method: (§1) QPCT or QPCTL dependent conversion of N-terminal glutamine to pyroglutamate of CD47 was monitored via MALDI-TOF MS. Test compounds were dissolved in 100% DMSO and serially diluted into clear 1,536-well microtiter plates. Enzymatic reactions were set up in assay buffer containing 20 mM Tris pH 7.5, 0.1 mM TCEP, 0.01% BSA, and 0.001% Tween20. […] The plates were incubated for 10 min in a humidified incubator at 24° C. Subsequently, 2.5 μL of CD47 peptide substrate surrogate (19[…]33) was added to each well (final concentration: 10 μM for QPCTL/20 μM for QPCT). The plates were mixed for 30 sec at 1,000 rpm and subsequently incubated for 40 min in a humidified incubator at 24° C. […] The plates were sealed with an adhesive foil, mixed for 30 s at 1,000 rpm and stored at room temperature until preparation of the MALDI target plates. MALDI target plates were prepared as described previously.
# [2] = target: Glutaminyl-peptide cyclotransferase-like protein (Homo sapiens, UniProt Q9NXS2); test: Biochemical QPCT and QPCTL Activity Assay
# Sequence of Glutaminyl-peptide cyclotransferase-like protein (Q9NXS2 whole entry): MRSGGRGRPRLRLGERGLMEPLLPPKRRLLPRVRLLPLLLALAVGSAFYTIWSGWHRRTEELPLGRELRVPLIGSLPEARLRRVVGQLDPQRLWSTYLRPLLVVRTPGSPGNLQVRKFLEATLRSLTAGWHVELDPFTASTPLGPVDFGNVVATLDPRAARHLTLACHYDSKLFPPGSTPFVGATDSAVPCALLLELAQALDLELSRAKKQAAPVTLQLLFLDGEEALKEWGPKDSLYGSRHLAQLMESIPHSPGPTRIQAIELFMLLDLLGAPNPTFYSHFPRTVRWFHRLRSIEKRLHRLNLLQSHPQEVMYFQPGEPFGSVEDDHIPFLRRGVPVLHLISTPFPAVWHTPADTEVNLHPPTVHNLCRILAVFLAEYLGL
# Method: as §1
# Sequence of Glutaminyl-peptide cyclotransferase (Q16769 whole entry): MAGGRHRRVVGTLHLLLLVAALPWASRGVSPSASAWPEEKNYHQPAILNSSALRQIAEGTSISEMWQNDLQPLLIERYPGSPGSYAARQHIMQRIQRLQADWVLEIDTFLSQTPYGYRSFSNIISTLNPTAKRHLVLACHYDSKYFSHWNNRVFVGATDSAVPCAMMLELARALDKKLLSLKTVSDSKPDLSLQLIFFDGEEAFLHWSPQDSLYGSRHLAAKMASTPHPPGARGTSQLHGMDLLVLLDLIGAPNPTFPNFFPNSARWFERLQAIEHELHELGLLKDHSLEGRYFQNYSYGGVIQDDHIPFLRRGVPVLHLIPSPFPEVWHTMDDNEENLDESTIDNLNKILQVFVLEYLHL
Compound,IC50 [1] [nM],IC50 [2] [nM]
"Cn1cnnc1C1CCN(c2c(C#N)cccc2-c2cncc(-c3ccccc3)c2)CC1 [US20240246981, Example 21]",195,50
"Cn1cnnc1C1CCN(c2c(C#N)cccc2-c2cncc(OC(F)F)c2)CC1 [US20240246981, Example 23]",162,31
"Cn1cnnc1C1CCN(c2c(C#N)cccc2-c2cnc(F)c(OC3CCC3)c2)CC1 [US20240246981, Example 34]",6,1
"Cn1cnnc1C1CCN(c2c(C#N)cccc2-c2cnc(F)c(OC(F)F)c2)CC1 [US20240246981, Example 37]",28,8
"Cn1cnnc1C1CCN(c2c(C#N)cccc2-c2cnc(F)c(Oc3ccccc3)c2)CC1 [US20240246981, Example 38]",–,13
"Cn1cnnc1C1CCN(c2c(C#N)cccc2-c2cnc3nn(C)c(C(F)(F)F)c3c2)CC1 [US20240246981, Example 41]",9,–
"Cn1cnnc1C1(F)CCN(c2c(C#N)cccc2-c2cnc3nn(CC(F)(F)F)cc3c2)CC1 [US20240246981, Example 55]",–,1
"Cn1cnnc1C1(F)CCN(c2c(C#N)cccc2-c2cnc(=O)n(C)c2)CC1 [US20240246981, Example 58]",–,1
"Cn1cnnc1C1(C)CCN(c2c(C#N)cccc2-c2cccnc2)CC1 [US20240246981, Example 65]",9,26
